Assays:
Assay in all cases: Cell panel screen (CellTiter-Glo)
Type in all cases: cell-based, human
RL95 = RL95 (Uterus), 20 micromolar, 72 hrs
Method: (§1) All cells were obtained from the cell bank of the American Type Culture Collection (ATCC) and cultured in the supplier's recommended media supplemented with 10% FBS. The cell panel screen was measured using the CellTiter-Glo assay (Promega, Madison, WI) following a standard protocol. Briefly, cancer cells were seeded in 96-well plates and cultured overnight at 37°C with or without 5% CO2 in an incubator. Each compound was dissolved with limited DMSO and diluted to a certain concentration with culture medium and then added to the corresponding well of the cell plate. The final concentration of compound was 20 μM. The control cells (without treatment) received the same amount of DMSO and were incubated under the same conditions. After 72 h cultivation, 100 μL of the CellTiter-Glo reagent was added directly to each well for 10-minute incubation. The plate was then read on a FlexStation 3 microplate luminometer (Molecular Devices, USA) to monitor the luminescence signal generated by the luciferase-catalyzed reaction of luciferin and ATP. The percent of growth inhibition was calculated using the following formula: (untreated cells − treated cells)/(untreated cells − background without cells) ∗ 100.

CW-2 = CW-2 (Colon), 20 micromolar, 72 hrs
Method: as §1

HCC1937 = HCC1937 (Breast), 20 micromolar, 72 hrs
Method: as §1

T47D = T47D (Breast), 20 micromolar, 72 hrs
Method: as §1

C3A = C3A (Liver), 20 micromolar, 72 hrs
Method: as §1

A498 = A498 (listed under Lung), 20 micromolar, 72 hrs
Method: as §1

HEC-1-A = HEC-1-A (Uterus), 20 micromolar, 72 hrs
Method: as §1

ZR-75-30 = ZR-75-30 (Breast), 20 micromolar, 72 hrs
Method: as §1

Bel-7402 = Bel-7402 (Liver), 20 micromolar, 72 hrs
Method: as §1

NCI-H28 = NCI-H28 (Lung), 20 micromolar, 72 hrs
Method: as §1

TCCSUP = TCCSUP (Urinary bladder), 20 micromolar, 72 hrs
Method: as §1

CCF-STTG1 = CCF-STTG1 (Brain), 20 micromolar, 72 hrs
Method: as §1

HPAF-II = HPAF-II (Pancreas), 20 micromolar, 72 hrs
Method: as §1

NCI-H524 = NCI-H524 (Lung), 20 micromolar, 72 hrs
Method: as §1

Colo 205 = settings: Colo 205, 20 micromolar, 72 hrs
Method: as §1

C8166 = C8166 (Leukemia), 20 micromolar, 72 hrs
Method: as §1

NCI-H2347 = NCI-H2347 (Lung), 20 micromolar, 72 hrs
Method: as §1

BT-549 = BT-549 (Breast), 20 micromolar, 72 hrs
Method: as §1

NCI-H1770 = NCI-H1770 (Lung), 20 micromolar, 72 hrs
Method: as §1

T98G = T98G (Brain), 20 micromolar, 72 hrs
Method: as §1

NCI-H2405 = NCI-H2405 (Lung), 20 micromolar, 72 hrs
Method: as §1

HCC1569 = HCC1569 (Breast), 20 micromolar, 72 hrs
Method: as §1

HGC-27 = HGC-27 (Stomach), 20 micromolar, 72 hrs
Method: as §1

HCC1395 = HCC1395 (Breast), 20 micromolar, 72 hrs
Method: as §1

ChaGo-K-1 = ChaGo-K-1 (Lung), 20 micromolar, 72 hrs
Method: as §1

J82 = J82 (Urinary bladder), 20 micromolar, 72 hrs
Method: as §1

BT-474 = BT-474 (Breast), 20 micromolar, 72 hrs
Method: as §1

HT-1197 = HT-1197 (Urinary bladder), 20 micromolar, 72 hrs
Method: as §1

Panc 03.27 = Panc 03.27 (Pancreas), 20 micromolar, 72 hrs
Method: as §1

SW13 = SW13 (Adrenal gland), 20 micromolar, 72 hrs
Method: as §1

HCC1599 = HCC1599 (Breast), 20 micromolar, 72 hrs
Method: as §1

A704 = A704 (Kidney), 20 micromolar, 72 hrs
Method: as §1

MSTO-211-H = MSTO-211-H (Lung), 20 micromolar, 72 hrs
Method: as §1

NCI-H1694 = NCI-H1694 (Lung), 20 micromolar, 72 hrs
Method: as §1

M059J = M059J (Brain), 20 micromolar, 72 hrs
Method: as §1

NCI-H1623 = NCI-H1623 (Lung), 20 micromolar, 72 hrs
Method: as §1

Compound | Percent Inhibition (RL95) | Percent Inhibition (CW-2) | Percent Inhibition (HCC1937) | Percent Inhibition (T47D) | Percent Inhibition (C3A) | Percent Inhibition (A498) | Percent Inhibition (HEC-1-A) | Percent Inhibition (ZR-75-30) | Percent Inhibition (Bel-7402) | Percent Inhibition (NCI-H28) | Percent Inhibition (TCCSUP) | Percent Inhibition (CCF-STTG1) | Percent Inhibition (HPAF-II) | Percent Inhibition (NCI-H524) | Percent Inhibition (Colo 205) | Percent Inhibition (C8166) | Percent Inhibition (NCI-H2347) | Percent Inhibition (BT-549) | Percent Inhibition (NCI-H1770) | Percent Inhibition (T98G) | also measured
CC(C)=CCc1c(O)cc2oc3cc(O)c(O)c(CCC(C)(C)O)c3c(=O)c2c1O [bn-16, Garcinone C] | 69% | 95% | 80% | 62% | 43% | 65% | 61% | 94% | 91% | 71% | 88% | 65% | 75% | 98% | 97% | 88% | 73% | 74% | 87% | 91% | Percent Inhibition (NCI-H2405): 73%; Percent Inhibition (HCC1569): 81%; Percent Inhibition (HGC-27): 77%; Percent Inhibition (HCC1395): 94%; Percent Inhibition (ChaGo-K-1): 91%; Percent Inhibition (J82): 85%; Percent Inhibition (BT-474): 83%; Percent Inhibition (HT-1197): 85%; Percent Inhibition (Panc 03.27): 86%; Percent Inhibition (SW13): 96%; Percent Inhibition (HCC1599): 94%; Percent Inhibition (A704): 62%; Percent Inhibition (MSTO-211-H): 93%; Percent Inhibition (NCI-H1694): 99%; Percent Inhibition (M059J): 78%; Percent Inhibition (NCI-H1623): 67%
O=c1c2cc(O)ccc2oc2cccc(O)c12 [gl-20] | 67% | 47% | 62% | 39% | 58% | 38% | 41% | 87% | -3% | 24% | 67% | 49% | 19% | 91% | 3% | 76% | 48% | 46% | -4% | 73% | Percent Inhibition (NCI-H2405): -5%; Percent Inhibition (HCC1569): 57%; Percent Inhibition (HGC-27): 69%; Percent Inhibition (HCC1395): 74%; Percent Inhibition (ChaGo-K-1): 57%; Percent Inhibition (J82): 60%; Percent Inhibition (BT-474): 50%; Percent Inhibition (HT-1197): 77%; Percent Inhibition (Panc 03.27): 52%; Percent Inhibition (SW13): 33%; Percent Inhibition (HCC1599): 83%; Percent Inhibition (A704): 13%; Percent Inhibition (MSTO-211-H): 59%; Percent Inhibition (NCI-H1694): 86%; Percent Inhibition (M059J): 63%; Percent Inhibition (NCI-H1623): -13%
CC(C)=CCc1c2c(c3oc4c(O)c(O)ccc4c(=O)c3c1O)C=CC(C)(C)O2 [Compound C-6] | 9% | 5% | 21% | 6% | 17% | 10% | 1% | 64% | 5% | 12% | 11% | 16% | -10% | -61% | 3% | 12% | 7% | -6% | 5% | 11% | Percent Inhibition (NCI-H2405): -5%; Percent Inhibition (HCC1569): 7%; Percent Inhibition (HGC-27): 18%; Percent Inhibition (HCC1395): 14%; Percent Inhibition (ChaGo-K-1): 7%; Percent Inhibition (J82): 13%; Percent Inhibition (BT-474): -18%; Percent Inhibition (HT-1197): 20%; Percent Inhibition (Panc 03.27): 21%; Percent Inhibition (SW13): 1%; Percent Inhibition (HCC1599): 52%; Percent Inhibition (A704): -8%; Percent Inhibition (MSTO-211-H): 1%; Percent Inhibition (NCI-H1694): 19%; Percent Inhibition (M059J): -21%; Percent Inhibition (NCI-H1623): -13%
COc1ccc2c(=O)c3c(O)cc(O)cc3oc2c1OC [Go-14] | -5% | 5% | 3% | -3% | -7% | -2% | -6% | -20% | -8% | -3% | 6% | -1% | 0% | -5% | 8% | 2% | -2% | -16% | -4% | 8% | Percent Inhibition (NCI-H2405): -10%; Percent Inhibition (HCC1569): 2%; Percent Inhibition (HGC-27): -2%; Percent Inhibition (HCC1395): -8%; Percent Inhibition (ChaGo-K-1): -16%; Percent Inhibition (J82): -8%; Percent Inhibition (BT-474): -23%; Percent Inhibition (HT-1197): -3%; Percent Inhibition (Panc 03.27): 4%; Percent Inhibition (SW13): -12%; Percent Inhibition (HCC1599): 0%; Percent Inhibition (A704): -13%; Percent Inhibition (MSTO-211-H): 11%; Percent Inhibition (NCI-H1694): -3%; Percent Inhibition (M059J): 0%; Percent Inhibition (NCI-H1623): -10%

Source: PMC4450297, “Screening Active Compounds from Garcinia Species Native to China Reveals Novel Compounds Targeting the STAT/JAK Signaling Pathway” (BioMed Research International, 2015)
